{"source": "patent US8039670B2", "about": "“Analogs of alpha galactosyceramide and uses thereof” (Ludwig Institute for Cancer Research, priority 2005, dated 2011)", "key": {"[1]": {"test_system": "DC", "test": "Viability of analog-pulsed DC co-cultured with iNKT cells (propidium iodide)", "assay_type": "cell-based, human", "conditions": "at concentration of maximal DC maturation", "protocol": "(§1) Different analogs of α-GalCer as indicated or LPS were added to co-cultures of human DC and iNKT cells. (A) Maturation of the DC was assessed after 40 h, gating on CD11c positive cells. Histograms indicate the CD83 and CD86 profiles of DC from different treatments; the percentages indicate the percentage of CD83hi mature DC and the numbers in parenthesis, the mean fluorescence intensity of the population contained within the labeled gate. DC and iNKT cells were co-cultured in the presence of different analogs of α-GalCer for 24 hours. Supernatants were analyzed using ELISA for the presence of (B) IL-12p40 released by the DC and (C) IFN-γ from the iNKT cells. All the compounds tested induced weaker but significant cytokine production than α-GalCer, with the exception of arabinitolceramide. (D) Titration of α-GalCer, OCH or threitolceramide on DCs and co-culture with iNKT cells induces DC maturation in vitro. Cells were co-cultured in the presence of the indicated concentration of analog and the percentages of DC with increased CD83/CD80 are shown. […] Viability of α-GalCer or analog-pulsed DC was assessed after 40 h co-culture in the presence of iNKT cells by flow cytometry. Cells were stained with propidium iodide and the percentage of live CD11c gated cells remaining in the culture are shown.\n(§2) To compare the functions of high affinity α-GalCer, intermediate affinity threitolceramide with the known, low affinity analog OCH, the three compounds were titrated onto DC and used to present to iNKT cells. Maturation of DC and DC viability were examined after 48 h."}, "[2]": {"test_system": "IL-12 p70 protein", "test": "Example F: IL-12 p70 in tail blood six hours after injection (ELISA)", "assay_type": "in vivo", "conditions": "1 μg or 10 μg", "protocol": "These experiments were performed to determine the effect of selected compounds of the invention in stimulating the production of IL-12 production in subject animals. The animals received 1 μg or 10 μg of threitol, glycerol or Gal-Cer. One group of animals also received 50 μg of MPL. Six hours following injection, tail blood samples were collected and the IL-12 p70 protein was determined using an ELISA all in accordance with standard procedures."}, "[3]": {"test": "Viability of analog-pulsed DC co-cultured with iNKT cells (propidium iodide)", "assay_type": "cell-based, human", "conditions": "human; at concentration of maximal DC maturation; read-out: DC still viable", "protocol": "as §1, §2"}, "[4]": {"test_system": "OVA-specific IgGs", "test": "OVA-specific IgG in serum after co-administration with OVA (ELISA, FIG. 7B)", "assay_type": "in vivo, mice", "conditions": "1 μg with 400 μg OVA, bled 11-14d", "protocol": "(A) C57BL/6 or iNKT^−/− mice were injected i.v. with 1 μg of vehicle, α-GalCer, analog or 25 μg MPL. Twenty hours after injection splenocytes were stained with antibodies against B220 and CD86 and analyzed by flow cytometry. Maturation was assessed by the upregulation of CD86 at the cell surface, gating on B cells (B220^+). Mean fluorescence intensity for each histogram is indicated. […] Mice were bled 11-14d after administration and the serum tested by ELISA for antibodies. Briefly, ELISA plates were coated with 10 μg/ml OVA and then serial dilutions of sera added and incubated overnight at 4° C. before detecting with an HRP-conjugated sheep anti-mouse IgG.\nNon-glycolipid analogs of α-GalCer stimulate B cell maturation in the presence of iNKT cells in vivo and subsequent antibody production. (A) C57BL/6 or iNKT^−/− mice were injected i.v. with 1 μg of vehicle, α-GalCer, analog or 25 μg MPL. Twenty hours after injection splenocytes were stained with antibodies against B220 and CD86 and analyzed by flow cytometry. Maturation was assessed by the upregulation of CD86 at the cell surface, gating on B cells (B220^+) (FIG. 7 A). Mean fluorescence intensity for each histogram is indicated. […] Mice were bled 11-14d after administration and the serum tested by ELISA for antibodies (FIG. 7 B)."}, "[5]": {"test_system": "NKT cells", "conditions": "cancer patients, after treatment; cited from earlier work"}}}
{"compound": "CCCCCCCCCCCCCCCCCCCCCCCCCC(=O)N[C@@H](COC[C@H](O)[C@@H](O)CO)[C@H](O)[C@H](O)CCCCCCCCCCCCCC", "note": "[Compound 3, Threitol Ceramide]", "values": [{"measurement": "DC viability (propidium iodide negative) compared with α-GalCer", "setting": "[1]", "result": "significantly greater proportion of DC were propidium iodide negative"}, {"measurement": "IL-12/p70 secretion", "setting": "[2]", "result": "Dose dependent increases in IL-12/p70 secretion"}]}
{"compound": "CCCCCCCCCCCCCCCCCCCCCCCCCC(=O)N[C@@H](CO[C@H]1OC(CO)[C@H](O)C(O)C1O)[C@H](O)[C@H](O)CCCCCCCCCCCCCC", "note": "(stereo partly drawn) [α-GalCer, α galactosylceramide, reference compound]", "values": [{"measurement": "viability at 48 h, 0.8 ng/ml", "setting": "[3]", "result": 10, "unit": "%"}, {"measurement": "OVA-specific IgGs", "setting": "[4]", "result": "induces significant OVA-specific IgGs"}, {"measurement": "time until NKT cells in peripheral blood fell to undetectable levels", "setting": "[5]", "result": "≤ 24", "unit": "h"}]}
